{"source": "BindingDB's records for doi:10.1016/j.bmcl.2006.03.041", "about": "(Abbott Laboratories, 2006)", "key": {"[1]": {"biological_target": "T1, RAC-alpha serine/threonine-protein kinase [139-480,S378A,S381A,T450D,S473D] (Homo sapiens, UniProt P31749, S378A/S381A/S473D/T450D)", "T1 construct": "139-480", "T1 sequence (P31749 139-480 S378A/S381A/T450D/S473D)": "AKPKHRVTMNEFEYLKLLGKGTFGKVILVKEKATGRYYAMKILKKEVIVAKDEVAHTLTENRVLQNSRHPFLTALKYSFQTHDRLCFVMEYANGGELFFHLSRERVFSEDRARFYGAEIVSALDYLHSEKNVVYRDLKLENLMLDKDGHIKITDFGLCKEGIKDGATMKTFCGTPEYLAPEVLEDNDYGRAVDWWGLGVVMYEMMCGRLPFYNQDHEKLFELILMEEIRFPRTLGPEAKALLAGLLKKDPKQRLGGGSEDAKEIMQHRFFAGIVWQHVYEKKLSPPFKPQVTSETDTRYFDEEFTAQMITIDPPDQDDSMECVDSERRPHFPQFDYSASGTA", "assay": "Akt Kinase Assay", "procedure": "(§1) The kinase assay uses His-Akt1 and a biotinylated peptide as substrate. The biotinylated peptides were immobilized on streptavidin-coated FLASH plates. After reaction, the 33P-phosphopeptide captured on the FLASH plates was measured with a TopCount Packard Instruments […] (Packard Instruments, Boston, MA)."}, "[2]": {"biological_target": "T2, Protein kinase C zeta type (Homo sapiens, UniProt Q05513)", "T2 sequence (Q05513 whole entry)": "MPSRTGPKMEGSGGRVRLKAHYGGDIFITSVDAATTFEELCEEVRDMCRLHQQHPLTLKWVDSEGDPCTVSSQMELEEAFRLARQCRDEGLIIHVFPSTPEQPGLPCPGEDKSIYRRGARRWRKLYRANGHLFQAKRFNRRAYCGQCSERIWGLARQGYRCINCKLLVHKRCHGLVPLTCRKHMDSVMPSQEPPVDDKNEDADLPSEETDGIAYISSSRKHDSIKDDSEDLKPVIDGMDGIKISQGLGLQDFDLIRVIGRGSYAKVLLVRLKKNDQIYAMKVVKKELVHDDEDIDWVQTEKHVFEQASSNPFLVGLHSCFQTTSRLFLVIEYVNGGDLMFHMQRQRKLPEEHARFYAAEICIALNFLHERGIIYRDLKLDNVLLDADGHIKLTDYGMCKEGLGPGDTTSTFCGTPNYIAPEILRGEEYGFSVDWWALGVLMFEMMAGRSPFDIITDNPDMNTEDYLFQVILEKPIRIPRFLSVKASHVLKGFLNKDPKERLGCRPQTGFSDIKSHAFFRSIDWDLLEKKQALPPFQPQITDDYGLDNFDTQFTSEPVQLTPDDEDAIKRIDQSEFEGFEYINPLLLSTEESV", "assay": "PKA/PKC Kinase Assay", "settings": "pH 7.5; 22 °C", "procedure": "as §1, with “purified recombinant enzyme” for “His-Akt1”, “MA). IC50s were calculated using the sigmoidal curve fit with the Assay Explorer software (MDL, Los Angeles, CA).” for “MA).”"}}, "data": [{"compound": "N[C@H](COc1cncc(-c2ccc3cnc(-c4ccccc4)cc3c2)c1)Cc1c[nH]c2ccccc12", "note": "[6-{5-[(2S)-2-amino-3-(1H-indol-3-yl)propoxy]pyridin-3-yl}-3-phenylisoquinoline]", "values": [{"measurement": "IC50", "setting": "[1]", "result": 305, "unit": "nM"}]}, {"compound": "N[C@H](COc1cncc(-c2ccc3c(=O)[nH]ccc3c2)c1)Cc1c[nH]c2ccccc12", "note": "[6-{5-[(2S)-2-amino-3-(1H-indol-3-yl)propoxy]pyridin-3-yl}isoquinolin-1-ol]", "values": [{"measurement": "IC50", "setting": "[1]; pH 7.5, 22 °C", "result": 1240, "unit": "nM"}]}, {"compound": "N[C@H](COc1cncc(-c2ccc3cnc(-c4ccncc4)cc3c2)c1)Cc1c[nH]c2ccccc12", "note": "[6-{5-[(2S)-2-amino-3-(1H-indol-3-yl)propoxy]pyridin-3-yl}-3-(pyridin-4-yl)isoquinoline]", "values": [{"measurement": "IC50", "setting": "[1]", "result": 122, "unit": "nM"}]}, {"compound": "N[C@H](COc1cncc(-c2ccc3cnc(F)cc3c2)c1)Cc1c[nH]c2ccccc12", "note": "[6-{5-[(2S)-2-amino-3-(1H-indol-3-yl)propoxy]pyridin-3-yl}-3-fluoroisoquinoline]", "values": [{"measurement": "IC50", "setting": "[1]", "result": 3.5, "unit": "nM"}]}, {"compound": "Cc1c(OC[C@@H](N)Cc2c[nH]c3ccccc23)cncc1-c1ccc2cnccc2c1", "note": "[6-{5-[(2S)-2-amino-3-(1H-indol-3-yl)propoxy]-4-methylpyridin-3-yl}isoquinoline]", "values": [{"measurement": "IC50", "setting": "[1]; pH 7.5, 22 °C", "result": 84, "unit": "nM"}]}, {"compound": "CC#Cc1cc2cc(-c3cncc(OC[C@@H](N)Cc4c[nH]c5ccccc45)c3)ccc2cn1", "note": "[6-{5-[(2S)-2-amino-3-(1H-indol-3-yl)propoxy]pyridin-3-yl}-3-(prop-1-yn-1-yl)isoquinoline]", "values": [{"measurement": "IC50", "setting": "[1]", "result": 180, "unit": "nM"}]}, {"compound": "N[C@H](COc1cncc(-c2ccc3cnc(-c4ccco4)cc3c2)c1)Cc1c[nH]c2ccccc12", "note": "[6-{5-[(2S)-2-amino-3-(1H-indol-3-yl)propoxy]pyridin-3-yl}-3-(furan-2-yl)isoquinoline]", "values": [{"measurement": "IC50", "setting": "[1]", "result": 57, "unit": "nM"}]}, {"compound": "N[C@H](COc1cncc(-c2ccc3cnc(Cl)cc3c2)c1)Cc1c[nH]c2ccccc12", "note": "[6-{5-[(2S)-2-amino-3-(1H-indol-3-yl)propoxy]pyridin-3-yl}-3-chloroisoquinoline]", "values": [{"measurement": "IC50", "setting": "[1]", "result": 407, "unit": "nM"}]}, {"compound": "C=Cc1cc2cc(-c3cncc(OC[C@@H](N)Cc4c[nH]c5ccccc45)c3)ccc2cn1", "note": "[6-{5-[(2S)-2-amino-3-(1H-indol-3-yl)propoxy]pyridin-3-yl}-3-ethenylisoquinoline]", "values": [{"measurement": "IC50", "setting": "[1]", "result": 22, "unit": "nM"}]}, {"compound": "COc1nccc2cc(-c3cncc(OC[C@@H](N)Cc4c[nH]c5ccccc45)c3)ccc12", "note": "[6-{5-[(2S)-2-amino-3-(1H-indol-3-yl)propoxy]pyridin-3-yl}-1-methoxyisoquinoline]", "values": [{"measurement": "IC50", "setting": "[1]; pH 7.5, 22 °C", "result": 39500, "unit": "nM"}]}, {"compound": "Nc1cc2cc(-c3cncc(OC[C@@H](N)Cc4c[nH]c5ccccc45)c3)ccc2cn1", "note": "[6-{5-[(2S)-2-amino-3-(1H-indol-3-yl)propoxy]pyridin-3-yl}isoquinolin-3-amine]", "values": [{"measurement": "IC50", "setting": "[1]", "result": 3.4, "unit": "nM"}]}, {"compound": "N[C@H](COc1cc(-c2ccc3cnccc3c2)cnc1Cl)Cc1c[nH]c2ccccc12", "note": "[6-{5-[(2S)-2-amino-3-(1H-indol-3-yl)propoxy]-6-chloropyridin-3-yl}isoquinoline]", "values": [{"measurement": "IC50", "setting": "[1]; pH 7.5, 22 °C", "result": 12, "unit": "nM"}]}, {"compound": "N[C@H](COc1cncc(-c2ccc3cnccc3c2)c1)Cc1c[nH]c2ccccc12", "note": "[13a (S-)]", "values": [{"measurement": "IC50", "setting": "[1]; pH 7.5, 22 °C", "result": 2, "unit": "nM"}]}, {"compound": "N#C/C=C/c1c(OC[C@@H](N)Cc2c[nH]c3ccccc23)cncc1-c1ccc2cnccc2c1", "note": "[(2E)-3-{3-[(2S)-2-amino-3-(1H-indol-3-yl)propoxy]-5-(isoquinolin-6-yl)pyridin-4-yl}prop-2-enenitrile]", "values": [{"measurement": "IC50", "setting": "[1]; pH 7.5, 22 °C", "result": 697, "unit": "nM"}]}, {"compound": "N[C@H](COc1cncc(-c2ccc3cnc(C#Cc4ccccc4)cc3c2)c1)Cc1c[nH]c2ccccc12", "note": "[6-{5-[(2S)-2-amino-3-(1H-indol-3-yl)propoxy]pyridin-3-yl}-3-(2-phenylethynyl)isoquinoline]", "values": [{"measurement": "IC50", "setting": "[1]", "result": 56, "unit": "nM"}]}, {"compound": "N[C@H](COc1cnc(-c2ccco2)c(-c2ccc3cnccc3c2)c1)Cc1c[nH]c2ccccc12", "note": "[6-{5-[(2S)-2-amino-3-(1H-indol-3-yl)propoxy]-2-(furan-2-yl)pyridin-3-yl}isoquinoline]", "values": [{"measurement": "IC50", "setting": "[1]; pH 7.5, 22 °C", "result": 1.5, "unit": "nM"}]}, {"compound": "C#Cc1ncc(OC[C@@H](N)Cc2c[nH]c3ccccc23)cc1-c1ccc2cnccc2c1", "note": "[6-{5-[(2S)-2-amino-3-(1H-indol-3-yl)propoxy]-2-ethynylpyridin-3-yl}isoquinoline]", "values": [{"measurement": "IC50", "setting": "[1]; pH 7.5, 22 °C", "result": 0.8, "unit": "nM"}]}, {"compound": "N[C@H](COc1cnc(C#Cc2ccccc2)c(-c2ccc3cnccc3c2)c1)Cc1c[nH]c2ccccc12", "note": "[6-{5-[(2S)-2-amino-3-(1H-indol-3-yl)propoxy]-2-(2-phenylethynyl)pyridin-3-yl}isoquinoline]", "values": [{"measurement": "IC50", "setting": "[1]; pH 7.5, 22 °C", "result": 1240, "unit": "nM"}]}, {"compound": "C=Cc1ncc(OC[C@@H](N)Cc2c[nH]c3ccccc23)cc1-c1ccc2cnccc2c1", "note": "[6-{5-[(2S)-2-amino-3-(1H-indol-3-yl)propoxy]-2-ethenylpyridin-3-yl}isoquinoline]", "values": [{"measurement": "IC50", "setting": "[1]; pH 7.5, 22 °C", "result": 2, "unit": "nM"}]}, {"compound": "Nc1nccc2cc(-c3cncc(OC[C@@H](N)Cc4c[nH]c5ccccc45)c3)ccc12", "note": "[6-{5-[(2S)-2-amino-3-(1H-indol-3-yl)propoxy]pyridin-3-yl}isoquinolin-1-amine]", "values": [{"measurement": "IC50", "setting": "[1]; pH 7.5, 22 °C", "result": 160, "unit": "nM"}]}, {"compound": "N[C@H](COc1cnc(Cl)c(-c2ccc3cnccc3c2)c1)Cc1c[nH]c2ccccc12", "note": "[6-{5-[(2S)-2-amino-3-(1H-indol-3-yl)propoxy]-2-chloropyridin-3-yl}isoquinoline]", "values": [{"measurement": "IC50", "setting": "[1]; pH 7.5, 22 °C", "result": 1.8, "unit": "nM"}, {"measurement": "IC50", "setting": "[2]", "result": "> 5000", "unit": "nM"}]}, {"compound": "Cc1cc(-c2cncc(OC[C@@H](N)Cc3c[nH]c4ccccc34)c2)cc2ccncc12", "note": "[6-{5-[(2S)-2-amino-3-(1H-indol-3-yl)propoxy]pyridin-3-yl}-8-methylisoquinoline]", "values": [{"measurement": "IC50", "setting": "[1]", "result": 995, "unit": "nM"}]}, {"compound": "N[C@H](COc1cncc(-c2ccc3c(Cl)nccc3c2)c1)Cc1c[nH]c2ccccc12", "note": "[6-{5-[(2S)-2-amino-3-(1H-indol-3-yl)propoxy]pyridin-3-yl}-1-chloroisoquinoline]", "values": [{"measurement": "IC50", "setting": "[1]; pH 7.5, 22 °C", "result": 778, "unit": "nM"}]}, {"compound": "CCc1cc2cc(-c3cncc(OC[C@@H](N)Cc4c[nH]c5ccccc45)c3)ccc2cn1", "note": "[6-{5-[(2S)-2-amino-3-(1H-indol-3-yl)propoxy]pyridin-3-yl}-3-ethylisoquinoline]", "values": [{"measurement": "IC50", "setting": "[1]", "result": 144, "unit": "nM"}]}, {"compound": "N#Cc1cc2cc(-c3cncc(OC[C@@H](N)Cc4c[nH]c5ccccc45)c3)ccc2cn1", "note": "[6-{5-[(2S)-2-amino-3-(1H-indol-3-yl)propoxy]pyridin-3-yl}isoquinoline-3-carbonitrile]", "values": [{"measurement": "IC50", "setting": "[1]", "result": 640, "unit": "nM"}]}, {"compound": "N#Cc1ncc(OC[C@@H](N)Cc2c[nH]c3ccccc23)cc1-c1ccc2cnccc2c1", "note": "[5-[(2S)-2-amino-3-(1H-indol-3-yl)propoxy]-3-(isoquinolin-6-yl)pyridine-2-carbonitrile]", "values": [{"measurement": "IC50", "setting": "[1]; pH 7.5, 22 °C", "result": 4.6, "unit": "nM"}]}, {"compound": "Nc1c(-c2cncc(OC[C@@H](N)Cc3c[nH]c4ccccc34)c2)ccc2cnccc12", "note": "[6-{5-[(2S)-2-amino-3-(1H-indol-3-yl)propoxy]pyridin-3-yl}isoquinolin-5-amine]", "values": [{"measurement": "IC50", "setting": "[1]", "result": 15, "unit": "nM"}]}, {"compound": "N[C@H](COc1cncc(-c2ccc3c(F)nccc3c2)c1)Cc1c[nH]c2ccccc12", "note": "[6-{5-[(2S)-2-amino-3-(1H-indol-3-yl)propoxy]pyridin-3-yl}-1-fluoroisoquinoline]", "values": [{"measurement": "IC50", "setting": "[1]; pH 7.5, 22 °C", "result": 227, "unit": "nM"}]}]}
